The conditions of data set [1]: humans; cited from earlier work.
The conditions of data set [2]: rats, oral, three-month period; cited from earlier work.
The conditions of data set [3]: dogs, cited from earlier work.
For data set [4], the system named is rat skin. Briefly: murine model of intradermal administration of implant materials. Type of data set: in vivo, rats. Conditions: sensorial analog scale, papule palpation. The method, then: Because of the above, a murine model essay of intradermal administration was designed, wherein several implant materials were evaluated such as natural and synthetic jojoba oil, peanut oil and perhydrosqualene, mixed with collagen-polyvinylpyrrolidone, various emulsifiers and a gelling agent (dibutyl-lauroyl glutamide). The administration of the implant materials generated papules, formed by the deposition of the material in the reticular dermis of the back of the rats. The papules were evaluated with regard to the tolerance of the tissue to the implant through a visual analog scale during a period of about 30 days, with their intervals; moreover, the eventual occurrence of skin changes such as irritation, ischemia formation and in some cases tissue necrosis related to the implanted material were reported, as well as the durability of the bioimplant that was quantified through a sensorial analog scale derived from the papule palpation.
In the same way, histological rat skin changes were evaluated through biopsies obtained from the implant infiltrated site, said biopsies were collected at different times in order to determine whether changes occurred in the internal skin structure, as well as to observe the implant site, the inflammatory infiltrate, the ratio between type I and type III collagens, as well as the possible formation of granulomes.

The conditions of data set [5]: mice; cited from earlier work.
The conditions of data set [6]: in vivo; cited from earlier work.
The conditions of data set [7]: excreted through natural routes; cited from earlier work.

Consider `CC(C)CCCC(C)CCCC(C)CCCCC(C)CCCC(C)CCCC(C)C` (stereo not drawn) [perhydrosqualene, 2,6,10,15,19,23-hexamethyltetracosane], for which, in data set [1], the “cutaneous and ocular irritation” value is “absence of cutaneous and ocular irritation”. In addition, in data set [2], the signs of toxicity entry is “did not show signs of toxicity”. In addition, in data set [3] (1200 mg/kg during 14 days), the blood level was 30 ppm and the perhydrosqualene excretion is listed as 65-90 % per day. The “perhydrosqualene in blood on day 56” value in data set [3] (day 56 after the first dose) was “not detectable”. In addition, the “durability of the bioimplant in the tissue” value in data set [4] is “constant even 15 days after its administration”. For the same compound, the “irritation after subcutaneous injections” value in data set [5] was “absence of cutaneous and ocular irritation”. In addition, the “mean lethal dose DL50” value in data set [6] was over 20 mL/kg. Also, the metabolism entry in data set [7] was “non-metabolizable”.

Values taken from patent publication US20100297056A1, “COMPOSITION BASED ON PERHYDROSQUALENE AND COLLAGEN-POLYVINYLPYRROLIDONE FOR FILLING MINOR CUTANEOUS DEPRESSIONS” (ASPID, S.A. DE C.V., priority 2007, published 2010).
